According to ChEMBL document CHEMBL1201862, “PubChem BioAssay data set” (2004):
Values belong to the compound of their own block, whether it stands above or below them. Calls of active or inactive are those of the source.

Columns and labels:
[1] = target: T1, Voltage-gated N-type calcium channel alpha-1B subunit/Amyloid beta A4 precursor protein-binding family A member 1 (Homo sapiens, UniProt Q00975+Q02410); format: protein assay
[2] = target: T1, Voltage-gated N-type calcium channel alpha-1B subunit/Amyloid beta A4 precursor protein-binding family A member 1; format: protein assay; remark: listed apart in the source
[3] = target: Large T antigen (Simian virus 40, UniProt P03070); format: functional, Betapolyomavirus macacae;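 also: Confirmatory-stage PubChem screen for compounds that inhibit SV40 T antigen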
[4] = target: Guanyl-specific ribonuclease T1 (Aspergillus oryzae (strain ATCC 42149 / RIB 40), UniProt P00651); assay: inhibition of ribonuclease T1 activity – biochemical, fluorescence polarization, 1536-well, counter-screen for TPT1 inhibitor project, dose response (AID 2167)
Sequence of Guanyl-specific ribonuclease T1 (P00651 whole entry): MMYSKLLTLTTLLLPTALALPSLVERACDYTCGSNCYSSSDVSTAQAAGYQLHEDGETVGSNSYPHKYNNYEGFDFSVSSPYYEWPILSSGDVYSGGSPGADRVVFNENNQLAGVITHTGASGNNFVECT

[5] = target: Likely tRNA 2'-phosphotransferase (Candida albicans (strain SC5314 / ATCC MYA-2876) (Yeast), UniProt Q5A7N4); assay: inhibition of Candida TPT1 enzyme activity – biochemical, fluorescence polarization, dose response (AID 2160)
Sequence of Likely tRNA 2'-phosphotransferase (Q5A7N4 whole entry): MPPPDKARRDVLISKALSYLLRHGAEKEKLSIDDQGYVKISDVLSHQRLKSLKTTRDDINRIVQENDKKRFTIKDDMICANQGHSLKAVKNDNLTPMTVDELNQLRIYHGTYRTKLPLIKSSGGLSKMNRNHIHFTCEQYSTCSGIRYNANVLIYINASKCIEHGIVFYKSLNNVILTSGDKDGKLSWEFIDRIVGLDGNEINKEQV

[6] = target: Aspartyl aminopeptidase (Plasmodium falciparum 3D7, UniProt Q8I2J3)
[7] = target: Procathepsin L (Homo sapiens, UniProt P07711)
[8] = target: T2, Eukaryotic translation initiation factor 2-alpha kinase 3 (Homo sapiens, UniProt Q9NZJ5); assay: Dose response cell-based high-throughput screening assay to measure PERK inhibition. [Related pubchem assays: 1416 ]; format: functional
T2 sequence (Q9NZJ5 whole entry): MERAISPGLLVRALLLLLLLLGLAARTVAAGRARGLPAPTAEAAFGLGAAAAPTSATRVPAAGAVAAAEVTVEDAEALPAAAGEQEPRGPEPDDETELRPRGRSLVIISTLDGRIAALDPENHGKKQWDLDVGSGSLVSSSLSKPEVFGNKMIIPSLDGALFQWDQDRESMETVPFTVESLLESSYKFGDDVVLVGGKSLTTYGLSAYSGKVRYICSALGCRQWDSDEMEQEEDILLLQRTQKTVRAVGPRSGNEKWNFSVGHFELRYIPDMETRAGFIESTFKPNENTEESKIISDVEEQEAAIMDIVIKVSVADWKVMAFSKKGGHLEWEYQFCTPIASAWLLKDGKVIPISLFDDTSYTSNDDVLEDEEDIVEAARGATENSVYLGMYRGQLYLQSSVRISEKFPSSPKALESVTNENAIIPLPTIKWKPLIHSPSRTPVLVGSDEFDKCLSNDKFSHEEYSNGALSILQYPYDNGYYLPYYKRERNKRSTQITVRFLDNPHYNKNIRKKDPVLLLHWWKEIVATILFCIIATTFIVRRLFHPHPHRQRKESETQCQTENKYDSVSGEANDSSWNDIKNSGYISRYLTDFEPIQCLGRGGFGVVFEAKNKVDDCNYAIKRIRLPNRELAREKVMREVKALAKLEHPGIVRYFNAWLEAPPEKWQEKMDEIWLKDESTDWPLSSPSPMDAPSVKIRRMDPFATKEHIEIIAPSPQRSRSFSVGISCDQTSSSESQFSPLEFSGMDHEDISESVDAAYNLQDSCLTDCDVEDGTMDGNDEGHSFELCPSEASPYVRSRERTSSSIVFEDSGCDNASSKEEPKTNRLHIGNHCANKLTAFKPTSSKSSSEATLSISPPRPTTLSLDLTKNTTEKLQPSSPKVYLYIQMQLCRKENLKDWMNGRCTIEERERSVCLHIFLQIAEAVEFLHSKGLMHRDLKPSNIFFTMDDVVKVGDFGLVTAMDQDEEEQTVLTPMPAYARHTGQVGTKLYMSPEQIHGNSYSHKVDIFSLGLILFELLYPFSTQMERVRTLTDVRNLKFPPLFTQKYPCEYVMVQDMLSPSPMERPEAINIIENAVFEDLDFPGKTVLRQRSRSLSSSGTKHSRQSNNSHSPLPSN

[9] = target: T2, Eukaryotic translation initiation factor 2-alpha kinase 3; assay: Counterscreen assay for PERK inhibitors: Dose response cell-based high throughput screening assay to measure inhibition of PERK at 6 hours. [Related pubchem assays: 1522, 1416 ]; format: functional
[10] = target: T3, Histone-lysine N-methyltransferase NSD2 (Homo sapiens, UniProt O96028); format: biochemical
T3 sequence (O96028 whole entry): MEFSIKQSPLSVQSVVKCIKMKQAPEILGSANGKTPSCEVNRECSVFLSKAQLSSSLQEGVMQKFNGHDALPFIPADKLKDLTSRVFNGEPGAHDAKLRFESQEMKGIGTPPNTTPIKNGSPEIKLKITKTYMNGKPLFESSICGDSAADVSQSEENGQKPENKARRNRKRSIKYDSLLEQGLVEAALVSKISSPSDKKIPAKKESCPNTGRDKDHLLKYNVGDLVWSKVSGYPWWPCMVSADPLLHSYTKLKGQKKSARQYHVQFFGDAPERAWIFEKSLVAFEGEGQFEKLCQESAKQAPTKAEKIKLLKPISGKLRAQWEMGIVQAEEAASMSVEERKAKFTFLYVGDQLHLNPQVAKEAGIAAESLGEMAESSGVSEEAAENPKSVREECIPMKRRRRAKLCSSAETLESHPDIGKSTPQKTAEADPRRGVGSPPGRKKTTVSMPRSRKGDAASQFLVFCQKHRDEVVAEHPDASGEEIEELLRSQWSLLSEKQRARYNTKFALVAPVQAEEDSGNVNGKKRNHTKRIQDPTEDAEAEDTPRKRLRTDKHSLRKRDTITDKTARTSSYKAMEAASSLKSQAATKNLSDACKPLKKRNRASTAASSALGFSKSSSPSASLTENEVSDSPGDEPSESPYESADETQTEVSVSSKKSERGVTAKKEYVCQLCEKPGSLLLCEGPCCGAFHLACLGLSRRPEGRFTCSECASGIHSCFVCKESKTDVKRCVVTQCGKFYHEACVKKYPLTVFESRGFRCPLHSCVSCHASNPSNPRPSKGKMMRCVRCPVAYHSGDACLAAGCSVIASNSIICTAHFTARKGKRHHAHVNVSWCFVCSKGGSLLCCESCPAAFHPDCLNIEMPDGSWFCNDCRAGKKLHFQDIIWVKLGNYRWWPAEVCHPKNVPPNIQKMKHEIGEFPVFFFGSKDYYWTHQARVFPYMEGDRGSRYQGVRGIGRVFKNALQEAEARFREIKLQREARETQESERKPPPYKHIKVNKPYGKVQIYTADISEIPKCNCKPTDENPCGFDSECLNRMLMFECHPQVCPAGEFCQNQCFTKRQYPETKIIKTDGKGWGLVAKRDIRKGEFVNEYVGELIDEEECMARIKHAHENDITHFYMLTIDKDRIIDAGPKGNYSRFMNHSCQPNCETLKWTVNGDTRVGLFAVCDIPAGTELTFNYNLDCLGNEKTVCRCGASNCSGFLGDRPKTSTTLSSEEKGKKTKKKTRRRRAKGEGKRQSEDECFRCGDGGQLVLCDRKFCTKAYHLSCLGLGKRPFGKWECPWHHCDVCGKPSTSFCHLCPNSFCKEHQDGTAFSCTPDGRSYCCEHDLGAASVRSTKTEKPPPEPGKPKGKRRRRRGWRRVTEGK

[11] = target: Lysosomal acid glucosylceramidase (Homo sapiens, UniProt P04062); assay: Dose response cell-based high throughput screening assay to identify enhancers of beta-glucosidase activity. [Related pubchem assays: 784 ]; format: functional
[12] = target: Photoreceptor-specific nuclear receptor (Homo sapiens, UniProt Q9Y5X4); format: functional;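 also: potency for compounds that break the NR2E3 corepressor complex and count as activators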
[13] = target: Peroxisome proliferator-activated receptor gamma/Nuclear receptor corepressor 2 (Homo sapiens, UniProt P37231+Q9Y618); format: functional
[14] = target: T4, Alkaline phosphatase, tissue-nonspecific isozyme (Homo sapiens, UniProt P05186)
T4 sequence (P05186 whole entry): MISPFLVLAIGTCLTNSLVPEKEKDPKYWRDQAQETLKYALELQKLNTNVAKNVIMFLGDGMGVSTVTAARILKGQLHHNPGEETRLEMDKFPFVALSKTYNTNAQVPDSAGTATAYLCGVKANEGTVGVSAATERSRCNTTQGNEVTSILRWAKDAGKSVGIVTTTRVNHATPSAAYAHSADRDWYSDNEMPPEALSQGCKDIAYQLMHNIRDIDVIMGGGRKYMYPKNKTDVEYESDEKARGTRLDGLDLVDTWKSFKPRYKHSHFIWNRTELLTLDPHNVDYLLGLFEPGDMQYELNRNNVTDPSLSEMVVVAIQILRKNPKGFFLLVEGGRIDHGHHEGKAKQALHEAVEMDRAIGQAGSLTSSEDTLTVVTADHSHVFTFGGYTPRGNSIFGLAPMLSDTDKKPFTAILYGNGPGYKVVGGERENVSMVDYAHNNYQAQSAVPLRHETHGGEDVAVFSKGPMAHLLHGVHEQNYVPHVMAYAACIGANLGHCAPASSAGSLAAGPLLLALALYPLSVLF

[15] = target: Polyadenylate-binding protein 1 (Homo sapiens, UniProt P11940); assay: blockers of PABP interaction with poly(A) – biochemical, fluorescence polarization, […] (AID 2014)
[16] = target: DNA dC->dU-editing enzyme APOBEC-3G (Homo sapiens, UniProt Q9HC16); format: functional;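 also: Dose-response counterscreen measuring inhibition of APOBEC3G DNA deaminase activity, run while confirming APOBEC3A inhibitors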
[17] = target: Eukaryotic translation initiation factor 4H (Homo sapiens, UniProt Q15056); assay: eIF4H binding inhibition – biochemical, uHTS, fluorescence polarization, translation initiation inhibitor project, primary screen (AID 2012)
[18] = target: DNA dC->dU-editing enzyme APOBEC-3A (Homo sapiens, UniProt P31941); assay: Dose Response confirmation of small molecule APOBEC3A DNA Deaminase Inhibitors via a fluorescence-based single-stranded DNA deaminase assay. [Related pubchem assays (depositor defined):AID493011, AID493024]; format: functional
Sequence of DNA dC->dU-editing enzyme APOBEC-3A (P31941 whole entry): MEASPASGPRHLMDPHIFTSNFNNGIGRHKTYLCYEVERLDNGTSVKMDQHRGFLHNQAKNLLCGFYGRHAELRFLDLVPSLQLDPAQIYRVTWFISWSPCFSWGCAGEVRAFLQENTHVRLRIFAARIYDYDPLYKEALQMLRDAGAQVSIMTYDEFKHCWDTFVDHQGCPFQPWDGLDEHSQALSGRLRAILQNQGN

[19] = target: Troponin, cardiac muscle (Homo sapiens, UniProt P19429+P45379+P63316); assay: Fluorescence-based biochemical high throughput dose response assay for activators of the calcium sensitivity of cardiac Regulated Thin Filaments (RTF). [Related pubchem assays (depositor defined):AID493008, AID493018, AID504382, AID504383]; format: protein-complex assay
[20] = Luminescence Cell-Based Dose Confirmation HTS to Identify Inhibitors of Polyadenylation.; format: functional
[21] = target: T5, Rac GTPase-activating protein 1 (Homo sapiens, UniProt Q9H0H5); assay: blockers of MgcRacGAP-driven Rac1 GTP hydrolysis – biochemical, ADP Hunter fluorescence, primary and confirmatory, confirmation (AID 624330); format: functional
T5 sequence (Q9H0H5 whole entry): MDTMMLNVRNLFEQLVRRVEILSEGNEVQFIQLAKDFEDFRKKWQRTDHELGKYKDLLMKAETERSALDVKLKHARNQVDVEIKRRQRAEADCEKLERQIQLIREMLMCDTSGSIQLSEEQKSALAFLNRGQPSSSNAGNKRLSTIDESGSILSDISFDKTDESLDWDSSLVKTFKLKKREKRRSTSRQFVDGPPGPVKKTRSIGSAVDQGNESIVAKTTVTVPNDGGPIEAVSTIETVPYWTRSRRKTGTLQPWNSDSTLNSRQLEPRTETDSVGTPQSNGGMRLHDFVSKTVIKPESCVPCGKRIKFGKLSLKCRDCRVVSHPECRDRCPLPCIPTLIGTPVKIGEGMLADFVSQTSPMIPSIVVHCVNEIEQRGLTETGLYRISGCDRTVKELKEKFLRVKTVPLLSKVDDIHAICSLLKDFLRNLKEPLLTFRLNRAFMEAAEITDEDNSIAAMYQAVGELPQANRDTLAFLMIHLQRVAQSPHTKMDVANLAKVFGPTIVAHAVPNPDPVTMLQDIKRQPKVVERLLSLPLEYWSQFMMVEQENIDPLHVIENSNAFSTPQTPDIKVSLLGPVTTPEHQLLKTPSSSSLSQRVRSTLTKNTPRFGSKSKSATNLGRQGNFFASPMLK

[22] = viability loss in HeLa cells – cytotoxicity control for MgcRacGAP inhibitor project, dose response (AID 624300); format: functional
[23] = mRNA 3' processing disruption, beta-gal signal increase – luminescence, S. cerevisiae SKY197-pL101, dose response (AID 2525); format: functional, cell-based
[24] = target: Cytochrome P450 2D6 (Homo sapiens, UniProt P10635); assay: qHTS Assay for Inhibitors and Substrates of Cytochrome P450 2D6. [Related pubchem assays: 410 ]; format: ADME; settings: read-out: Potency

T1 sequence (Q00975 whole entry): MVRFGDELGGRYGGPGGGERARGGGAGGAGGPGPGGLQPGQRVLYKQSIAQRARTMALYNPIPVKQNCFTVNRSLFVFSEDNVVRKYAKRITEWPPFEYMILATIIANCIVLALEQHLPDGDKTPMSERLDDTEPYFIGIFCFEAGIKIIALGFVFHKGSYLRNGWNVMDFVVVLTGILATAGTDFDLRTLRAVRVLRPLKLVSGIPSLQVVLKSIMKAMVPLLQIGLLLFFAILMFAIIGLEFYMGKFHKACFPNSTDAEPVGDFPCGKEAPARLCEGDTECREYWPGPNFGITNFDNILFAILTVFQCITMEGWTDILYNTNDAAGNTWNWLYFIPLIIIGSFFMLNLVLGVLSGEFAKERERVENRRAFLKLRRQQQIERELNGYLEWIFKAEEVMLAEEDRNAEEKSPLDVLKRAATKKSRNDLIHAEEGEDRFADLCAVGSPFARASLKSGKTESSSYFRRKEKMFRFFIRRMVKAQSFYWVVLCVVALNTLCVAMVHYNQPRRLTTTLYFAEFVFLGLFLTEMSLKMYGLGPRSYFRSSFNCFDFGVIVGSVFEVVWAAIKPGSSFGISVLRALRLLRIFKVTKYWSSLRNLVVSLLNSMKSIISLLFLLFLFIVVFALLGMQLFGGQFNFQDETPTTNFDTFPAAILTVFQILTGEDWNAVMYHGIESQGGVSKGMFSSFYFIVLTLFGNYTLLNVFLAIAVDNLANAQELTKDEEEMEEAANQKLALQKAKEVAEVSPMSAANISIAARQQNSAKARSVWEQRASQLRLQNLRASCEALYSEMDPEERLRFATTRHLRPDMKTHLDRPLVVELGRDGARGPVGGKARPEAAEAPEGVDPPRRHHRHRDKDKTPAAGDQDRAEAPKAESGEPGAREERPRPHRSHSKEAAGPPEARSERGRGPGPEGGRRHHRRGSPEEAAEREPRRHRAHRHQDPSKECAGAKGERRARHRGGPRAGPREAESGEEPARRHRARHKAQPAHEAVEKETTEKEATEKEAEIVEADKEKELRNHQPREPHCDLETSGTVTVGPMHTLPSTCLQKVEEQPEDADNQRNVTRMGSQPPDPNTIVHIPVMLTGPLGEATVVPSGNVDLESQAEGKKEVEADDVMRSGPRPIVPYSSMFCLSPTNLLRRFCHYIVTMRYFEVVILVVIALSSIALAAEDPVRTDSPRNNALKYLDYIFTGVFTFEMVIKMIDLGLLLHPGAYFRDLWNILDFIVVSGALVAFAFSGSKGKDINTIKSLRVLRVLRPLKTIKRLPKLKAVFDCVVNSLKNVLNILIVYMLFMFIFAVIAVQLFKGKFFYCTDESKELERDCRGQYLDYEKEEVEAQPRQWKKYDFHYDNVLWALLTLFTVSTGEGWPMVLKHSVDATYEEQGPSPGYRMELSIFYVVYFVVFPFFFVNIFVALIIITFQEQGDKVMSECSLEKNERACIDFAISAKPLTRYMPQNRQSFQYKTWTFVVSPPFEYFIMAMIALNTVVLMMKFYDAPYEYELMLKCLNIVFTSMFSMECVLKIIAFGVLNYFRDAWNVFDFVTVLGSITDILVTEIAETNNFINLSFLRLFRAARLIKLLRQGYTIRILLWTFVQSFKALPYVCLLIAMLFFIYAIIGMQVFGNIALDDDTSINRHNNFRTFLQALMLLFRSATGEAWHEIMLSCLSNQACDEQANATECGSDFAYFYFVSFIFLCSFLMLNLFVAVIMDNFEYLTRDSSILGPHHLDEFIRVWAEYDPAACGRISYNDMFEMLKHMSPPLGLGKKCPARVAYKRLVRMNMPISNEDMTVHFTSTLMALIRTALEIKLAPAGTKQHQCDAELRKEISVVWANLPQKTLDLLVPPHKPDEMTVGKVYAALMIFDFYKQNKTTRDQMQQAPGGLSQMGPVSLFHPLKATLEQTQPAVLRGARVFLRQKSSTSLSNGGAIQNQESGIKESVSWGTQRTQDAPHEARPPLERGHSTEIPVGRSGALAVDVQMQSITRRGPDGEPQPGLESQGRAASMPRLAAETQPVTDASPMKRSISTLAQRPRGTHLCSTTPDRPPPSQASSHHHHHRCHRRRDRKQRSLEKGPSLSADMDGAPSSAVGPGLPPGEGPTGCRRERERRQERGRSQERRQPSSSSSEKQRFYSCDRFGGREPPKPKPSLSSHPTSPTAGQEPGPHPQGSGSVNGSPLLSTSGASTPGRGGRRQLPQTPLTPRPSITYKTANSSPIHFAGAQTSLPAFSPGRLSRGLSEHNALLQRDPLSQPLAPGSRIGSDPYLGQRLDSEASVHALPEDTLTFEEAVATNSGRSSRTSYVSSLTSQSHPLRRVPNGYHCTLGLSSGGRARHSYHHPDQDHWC
T1 sequence (Q02410 whole entry): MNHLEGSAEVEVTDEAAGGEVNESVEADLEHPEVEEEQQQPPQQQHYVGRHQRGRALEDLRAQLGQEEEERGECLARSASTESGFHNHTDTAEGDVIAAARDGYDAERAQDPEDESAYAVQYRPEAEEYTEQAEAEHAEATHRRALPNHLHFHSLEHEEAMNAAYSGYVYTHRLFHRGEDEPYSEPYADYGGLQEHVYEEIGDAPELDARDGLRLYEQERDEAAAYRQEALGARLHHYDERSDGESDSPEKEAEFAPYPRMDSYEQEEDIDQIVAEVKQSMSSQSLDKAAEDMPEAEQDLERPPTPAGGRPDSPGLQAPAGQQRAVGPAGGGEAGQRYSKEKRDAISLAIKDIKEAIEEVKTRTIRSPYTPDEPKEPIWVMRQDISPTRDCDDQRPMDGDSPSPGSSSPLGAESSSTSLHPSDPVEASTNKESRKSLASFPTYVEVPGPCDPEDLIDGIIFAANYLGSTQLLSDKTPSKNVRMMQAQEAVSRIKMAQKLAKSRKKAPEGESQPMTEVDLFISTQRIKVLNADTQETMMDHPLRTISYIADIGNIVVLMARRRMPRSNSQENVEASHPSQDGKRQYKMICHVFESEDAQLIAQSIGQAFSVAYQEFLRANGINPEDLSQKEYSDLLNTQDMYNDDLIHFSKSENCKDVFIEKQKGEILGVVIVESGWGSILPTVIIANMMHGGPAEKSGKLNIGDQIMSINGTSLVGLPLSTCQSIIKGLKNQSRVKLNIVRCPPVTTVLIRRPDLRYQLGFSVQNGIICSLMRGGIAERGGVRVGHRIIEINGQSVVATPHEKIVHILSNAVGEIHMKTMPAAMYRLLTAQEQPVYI

Compound: O=C(Nn1cnnc1)c1csc2ccccc12
- IC50 [6]: 2.17 µM (active)
- IC50 [7]: > 59.6 µM (not active)

Compound: CCN(CC)CCCNC(=O)c1cc(-c2cccc(Cl)c2)on1
- AC50 [10]: > 20 µM (inactive)
- EC50 [11]: > 50 µM (not active)

Compound: Fc1ccccc1N1CC(c2ccccc2)C(c2cccs2)=N1 (centres undefined)
- EC50 [14]: > 100 µM (not active)

Compound: COCCN1C(NCCCOC(C)C)=N[C@@H](c2ccccc2)C(C(=O)OC)=C1C
- IC50 [15]: 8.01 µM (active)
- IC50 [16]: 4.32 µM (active)
- IC50 [17]: > 100 µM (inactive)
- IC50 [18]: 5.67 µM (active)

Compound: CCOc1cc(/C=C2\N=C(SC(C)C(N)=O)N(c3ccc(OC(F)F)cc3)C2=O)ccc1O (centres undefined)
- EC50 [19]: 8.42 µM (active)
- EC50 [20]: 10.7 µM (active)
- IC50 [21]: 91.2 µM (active)
- CC50 [22]: 51.2 µM (active)
- EC50 [23]: 19.4 µM (active)

Continued, values first:

- IC50 [1]: 4.68 µM (active)
- IC50 [2]: > 56.8 µM (not active)
- IC50 [3]: 7.93 µM (active)
- IC50 [4]: > 55.7 µM (not active)
- IC50 [5]: 0.142 µM (active)
Compound: CC1=C(C#N)C(=O)N(C2CCS(=O)(=O)C2)C(=O)/C1=C\c1ccco1 (centres undefined)

- EC50 [8]: > 55.7 µM (not active)
- EC50 [9]: > 55.7 µM (not active)
Compound: CC(=O)c1ccc(S(=O)(=O)N2CCN(CC#N)CC2)cc1

- IC50 [12]: > 39.8 µM (not active)
- IC50 [13]: 13.7 µM (not active)
Compound: COc1cccc2cc(C(=O)C3=C(O)C(=O)N(CCN4CCOCC4)C3c3cccs3)oc12 (centres undefined)

- AC50 [24]: 7.94 µM (inconclusive)
Compound: CC12C=C(/C=C/c3ccc(Br)cc3)C(C)(C1)C(c1ccc(Br)cc1)CC2=O (centres undefined)
